Test results from US20240197694A1, “MODIFIED PROTEINS AND PROTEIN BINDERS” (Cullgen (Shanghai), Inc., priority 2021, published 2024).

Target: T1, DCAF1 (1058-1396) (Homo sapiens, UniProt Q9Y4B6)
T1 construct: a fragment of a DCAF1 protein that includes amino acid residues A1058 to E1396; His6 (N, cleaved yes); made in house; host or cells: Sf9 insect cells (Bac-to-Bac baculovirus, pFastBacHT vector)
Assay: Surface plasmon resonance (SPR) binding assay, compound binding to DCAF1
Conditions: immobilized DCAF1 (1058-1396), steady state affinity model, 25° C.
Description: Binding affinities of specific exemplary compounds to DCAF1 (1058-1396), which is a fragment of a DCAF1 protein that includes amino acid residues A1058 to E1396 were determined by a surface plasmon resonance (SPR) assay. Briefly, purified DCAF1 (1058-1396) proteins were immobilized at a density of 9,000-11,000 resonance units (RUs) on a CMS sensor chip. Sensorgrams were recorded at different concentrations of compounds in multi-cycle kinetic format. Data were analyzed using a steady state affinity model through Biacore Evaluation Software to provide equivalent dissociation constants (Kd).
Binding affinities of compounds to DCAF1 were determined by a surface plasmon resonance (SPR) assay. Purified DCAF1 (1058-1396) proteins were immobilized on a CMS sensor chip, and a dose range of compound solutions were injected in multi-cycle kinetic format. Data were analyzed using a steady state model to provide equivalent dissociation constants (Kd).
Protein Expression and Purification: Human DCAF1 (1058-1396) (UniPro: Q9Y4B6) coding sequences were cloned into pFastBacHT vector and were expressed in Sf9 cells using Bac-to-Bac baculovirus expression system (Thermo Fisher Scientific). The expression construct for DCAF1 (1058-1396) included a N-terminal His6-tag to facilitate the purification. DCAF1 (1058-1396) proteins were obtained from supernatants of cell lysates and purified through sequential application of Ni affinity chromatography (Ni-NTA column, Bio-Rad), Tag removal using TEV protease, and size-exclusion chromatography (Superdex 200 column, GE Healthcare).
Surface plasmon resonance (SPR) binding assays: SPR studies were performed on a Biacore X100 plus or T200 instrument (GE Healthcare). Immobilization of purified DCAF1 (1058-1396) was carried out at 25° C. using a CMS sensor chip. The surface was pre-equilibrated in HBS-EP running buffer (10 mM HEPES, pH 7.4, 150 mM NaCl, 3 mM EDTA, 0.05% P20), before being activated with EDC/NHS. DCAF1 (1058-1396) was immobilized through amino groups to a density of 9,000-12,000 resonance units (RUs) on flow cell channel 2 (FC2), whereas flow cell channel 1 (FC1) was used as reference. Both DCAF1 immobilized and reference surfaces were deactivated with 1 M ethanolamine.
Interaction experiments were performed at 25° C. The compounds were prepared and serially diluted in HBS-EP running buffer containing final 2% DMSO (6-point two-fold serial dilution, 100 μM -3.125 μM final concentration of compounds). Compound Solutions were injected individually in multi-cycle kinetic format without regeneration (flow rate 30 μL/min, association time 60 s, dissociation time 60 s). Sensorgrams from reference surfaces and blank injections were subtracted from the raw data (double-referenced) and the data was solvent-corrected prior to analysis. Data were analyzed using a steady state affinity model through Biacore Evaluation Software to provide equivalent dissociation constants (Kd).

T1 sequence (Q9Y4B6 1058-1396): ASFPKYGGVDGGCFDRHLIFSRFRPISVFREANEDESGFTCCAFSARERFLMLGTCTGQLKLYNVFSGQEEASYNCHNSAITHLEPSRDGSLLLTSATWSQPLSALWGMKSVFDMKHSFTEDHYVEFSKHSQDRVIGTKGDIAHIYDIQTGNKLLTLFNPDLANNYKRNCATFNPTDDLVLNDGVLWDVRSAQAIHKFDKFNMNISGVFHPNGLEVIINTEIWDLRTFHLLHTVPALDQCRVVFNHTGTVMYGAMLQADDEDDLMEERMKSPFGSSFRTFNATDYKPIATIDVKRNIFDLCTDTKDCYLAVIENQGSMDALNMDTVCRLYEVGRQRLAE

`c1ncc(CNCc2ccc3cc[nH]c3c2)[nH]1` [CPD-029, N-((1H-imidazol-5-yl)methyl)-1-(1H-indol-6-yl)methanamine] and `OCCOc1ccc(CNCc2cnc[nH]2)cc1` [CPD-031, 2-(4-((((1H-imidazol-5-yl)methyl)amino)methyl)phenoxy)ethan-1-ol] cannot be ordered by Kd: > 100 µM for the first, > 100 µM for the second.

Going from `Clc1cc(CNCc2cnc[nH]2)cc2c1OCO2` [CPD-030, N-((1H-imidazol-5-yl)methyl)-1-(7-chlorobenzo[d][1,3]dioxol-5-yl)methanamine] to `O=C(CCN1CCc2[nH]c3ccc(Cl)cc3c2C1)N1CCOCC1` [CPD-049, 3-(8-chloro-1,3,4,5-tetrahydro-2H-pyrido[4,3-b]indol-2-yl)-1-morpholinopropan-1-one], the Kd falls from > 100 µM to ≤ 40 µM.

`Cc1ccc(Br)c2[nH]c3c(c12)CN(C)CC3` [CPD-038, 6-bromo-2,9-dimethyl-2,3,4,5-tetrahydro-1H-pyrido[4,3-b]indole] and `COc1cccc2c3c([nH]c12)CCN(C)C3` [CPD-047, 6-methoxy-2-methyl-2,3,4,5-tetrahydro-1H-pyrido[4,3-b]indole] cannot be ordered by Kd: > 100 µM for the first, > 100 µM for the second.

`CCN1CCc2[nH]c3ccccc3c2C1` [CPD-043, 2-ethyl-2,3,4,5-tetrahydro-1H-pyrido[4,3-b]indole] and `c1ccc2c3c([nH]c2c1)CCN(CCc1ccncc1)C3` [CPD-045, 2-(2-(pyridin-4-yl)ethyl)-2,3,4,5-tetrahydro-1H-pyrido[4,3-b]indole] fall in the same range of Kd: 40 to 70 µM for the first, 40 to 70 µM for the second.

`O=C(CN1CCc2[nH]c3ccc(Cl)cc3c2C1)N1CCOCC1` [CPD-044, 2-(8-chloro-1,3,4,5-tetrahydro-2H-pyrido[4,3-b]indol-2-yl)-1-morpholinoethan-1-one] and `O=C(CCN1CCc2[nH]c3ccccc3c2C1)N1CCOCC1` [CPD-048, 1-morpholino-3-(1,3,4,5-tetrahydro-2H-pyrido[4,3-b]indol-2-yl)propan-1-one] cannot be ordered by Kd: 40 to 70 µM for the first, ≤ 40 µM for the second.

First: CN1CCc2[nH]c3ccc(Cl)cc3c2C1 [CPD-046, 8-chloro-2-methyl-2,3,4,5-tetrahydro-1H-pyrido[4,3-b]indole]
Second: CNC(=O)NC(=O)CCN1CCc2[nH]c3ccc(Cl)cc3c2C1 [CPD-050, 3-(8-chloro-1,3,4,5-tetrahydro-2H-pyrido[4,3-b]indol-2-yl)-N-(methylcarbamoyl)propanamide]
The Kd of the first is higher: > 100 µM for the first, 70 to 100 µM for the second.

`COC(CN1CCc2[nH]c3ccc(F)cc3c2C1)OC` [CPD-051, 2-(2,2-dimethoxyethyl)-8-fluoro-2,3,4,5-tetrahydro-1H-pyrido[4,3-b]indole] and `C#CCNC(=O)CCN1CCc2[nH]c3ccc(F)cc3c2C1` [CPD-052, 3-(8-fluoro-1,3,4,5-tetrahydro-2H-pyrido[4,3-b]indol-2-yl)-N-(prop-2-yn-1-yl)propanamide] cannot be ordered by Kd: ≤ 40 µM for the first, 40 to 70 µM for the second.

First: Nc1nc(CCN2CCc3[nH]c4ccc(F)cc4c3C2)cs1 [CPD-053, 4-(2-(8-fluoro-1,3,4,5-tetrahydro-2H-pyrido[4,3-b]indol-2-yl)ethyl)thiazol-2-amine]
Second: O=C(O)CCN1CCc2[nH]c3ccc(Br)cc3c2C1 [CPD-054, 3-(8-bromo-1,3,4,5-tetrahydro-2H-pyrido[4,3-b]indol-2-yl)propanoic acid]
The Kd of the first is lower: 40 to 70 µM for the first, > 100 µM for the second.

First: Cc1ccc2[nH]c3c(c2c1)CN(CC1(CC(=O)O)CC1)CC3 [CPD-055, 2-(1-((8-methyl-1,3,4,5-tetrahydro-2H-pyrido[4,3-b]indol-2-yl)methyl)cyclopropyl) acetic acid]
Second: Cc1ccc2[nH]c3c(c2c1)CN(CC(O)COc1ccc(C(=O)O)cc1)CC3 (centres unmarked) [CPD-056, 4-(2-hydroxy-3-(8-methyl-1,3,4,5-tetrahydro-2H-pyrido[4,3-b]indol-2-yl)propoxy)benzoic acid]
The Kd of the first is higher: > 100 µM for the first, ≤ 40 µM for the second. The second binds more tightly here.

First: CN1CCc2c(c3ccccc3n2-c2ccccc2)C1 [CPD-057, 2-methyl-5-phenyl-2,3,4,5-tetrahydro-1H-pyrido[4,3-b]indole]
Second: CN1CCc2c(c3ccccc3n2Cc2ccccc2)C1 [CPD-058, 5-benzyl-2-methyl-2,3,4,5-tetrahydro-1H-pyrido[4,3-b]indole]
The Kd of the first is higher: > 100 µM for the first, 70 to 100 µM for the second. The second binds more tightly here.

First: Cc1ccc(CCn2c3c(c4ccccc42)CN(C)CC3)cn1 [CPD-059, 2-methyl-5-(2-(6-methylpyridin-3-yl)ethyl)-2,3,4,5-tetrahydro-1H-pyrido[4,3-b]indole]
Second: CN1CCc2c(c3ccccc3n2CCC(N)=O)C1 [CPD-060, 3-(2-methyl-1,2,3,4-tetrahydro-5H-pyrido[4,3-b]indol-5-yl)propanamide]
The Kd of the first is lower: 40 to 70 µM for the first, 70 to 100 µM for the second.

`Cc1ccc2c(c1)C1CN(C)CCC1N2c1nc(S(=O)(=O)c2ccccc2)c(Cl)s1` (centres unmarked) [CPD-061, 5-chloro-2-(2,8-dimethyl-1,2,3,4,4a,9b-hexahydro-5H-pyrido [4,3-b]indol-5-yl)-4-(phenylsulfonyl)thiazole] and `Cc1ccc(S(=O)(=O)c2nc(N3c4ccc(C)cc4C4CN(C)CCC43)sc2Cl)cc1` (centres unmarked) [CPD-062, 5-chloro-2-(2,8-dimethyl-1,2,3,4,4a,9b-hexahydro-5H-pyrido [4,3-b]indol-5-yl)-4-tosylthiazole] cannot be ordered by Kd: > 100 µM for the first, > 100 µM for the second.

`COc1nccc(C(=O)N2c3ccc(C)cc3C3CN(C)CCC32)n1` (centres unmarked) [CPD-063, (2,8-dimethyl-1,2,3,4,4a,9b-hexahydro-5H-pyrido[4,3-b]indol-5-yl)(2-methoxypyrimidin-4-yl)methanone] and `COc1cc(C(=O)N2c3ccc(C)cc3C3CN(C)CCC32)ncn1` (centres unmarked) [CPD-064, (2,8-dimethyl-1,2,3,4,4a,9b-hexahydro-5H-pyrido [4,3-b]indol-5-yl)(6-methoxypyrimidin-4-yl)methanone] cannot be ordered by Kd: > 100 µM for the first, > 100 µM for the second.

First: Cc1ccc2c(c1)C1CN(C)CCC1N2C(=O)c1cc(F)ccc1Br (centres unmarked) [CPD-065, (2-bromo-5-fluorophenyl) (2,8-dimethyl-1,2,3,4,4a,9b-hexahydro-5H-pyrido[4,3-b]indol-5-yl)methanone]
Second: COc1cc(C)ccc1C(=O)N1c2ccc(C)cc2C2CN(C)CCC21 (centres unmarked) [CPD-067, (2,8-dimethyl-1,2,3,4,4a,9b-hexahydro-5H-pyrido[4,3-b]indol-5-yl)(2-methoxy-4-methylphenyl)methanone]
The Kd of the first is lower: ≤ 40 µM for the first, > 100 µM for the second. The first binds more tightly here.

`Cc1ccc2c(c1)C1CN(C)CCC1N2C(=O)c1nc(Cl)ccc1Cl` (centres unmarked) [CPD-066, (3,6-dichloropyridin-2-yl) (2,8-dimethyl-1,2,3,4,4a,9b-hexahydro-5H-pyrido[4,3-b]indol-5-yl)methanone] and `COc1nn(C)cc1C(=O)N1c2ccc(C)cc2C2CN(C)CCC21` (centres unmarked) [CPD-070, (2,8-dimethyl-1,2,3,4,4a,9b-hexahydro-5H-pyrido[4,3-b]indol-5-yl)(3-methoxy-1-methyl-1H-pyrazol-4-yl)methanone] cannot be ordered by Kd: > 100 µM for the first, > 100 µM for the second.

`Cc1ccc2c(c1)C1CN(C)CCC1N2C(=O)c1cc(-n2cccc2)ccn1` (centres unmarked) [CPD-068, (4-(1H-pyrrol-1-yl)pyridin-2-yl)(2,8-dimethyl-1,2,3,4,4a,9b-hexahydro-5H-pyrido[4,3-b]indol-5-yl)methanone] and `Cc1ccc2c(c1)C1CN(C)CCC1N2C(=O)c1ccnc(OCC(F)F)c1` (centres unmarked) [CPD-069, (2-(2,2-difluoroethoxy)pyridin-4-yl)(2,8-dimethyl-1,2,3,4,4a,9b-hexahydro-5H-pyrido[4,3-b]indol-5-yl)methanone] cannot be ordered by Kd: > 100 µM for the first, > 100 µM for the second.

`CCn1nc(C2CC2)cc1C(=O)N1c2ccc(C)cc2C2CN(C)CCC21` (centres unmarked) [CPD-071, (3-cyclopropyl-1-ethyl-1H-pyrazol-5-yl)(2,8-dimethyl-1,2,3,4,4a,9b-hexahydro-5H-pyrido[4,3-b]indol-5-yl)methanone] and `Cc1ccc2c(c1)C1CN(C)CCC1N2C(=O)c1cc(C#N)oc1C` (centres unmarked) [CPD-072, 4-(2,8-dimethyl-2,3,4,4a,5,9b-hexahydro-1H-pyrido[4,3-b]indole-5-carbonyl)-5-methylfuran-2-carbonitrile] cannot be ordered by Kd: > 100 µM for the first, > 100 µM for the second.

`Cc1ccc2c(c1)C1CN(C)CCC1N2C(=O)c1cc2c(s1)CCCC2` (centres unmarked) [CPD-073, (2,8-dimethyl-1,2,3,4,4a,9b-hexahydro-5H-pyrido[4,3-b]indol-5-yl)(4,5,6,7-tetrahydrobenzo[b]thiophen-2-yl)methanone] was tested, and the Kd was > 100 µM.
